In BindingDB's records for doi:10.1016/j.bmcl.2010.10.034 (Bristol-Myers Squibb Research and Development, 2010):

Biological target: cAMP-dependent protein kinase catalytic subunit beta (Homo sapiens) (UniProt P22694)
Assay: Inhibition of PKAbeta

IC50: > 40 µM
Compound: Cc1ccc(C(=O)Nc2ccon2)cc1NC(=O)c1cnn(-c2ccccc2F)c1N [5-amino-1-(2-fluorophenyl)-N-(5-(isoxazol-3-ylcarbamoyl)-2-methylphenyl)-1H-pyrazole-4-carboxamide]
